From patent US11680086B2, “Lipopeptide for potently inhibiting HIV, derivative thereof, pharmaceutical composition thereof and use thereof” (Institute of Pathogen Biology, Chinese Academy of Medical …, priority 2017, dated 2023)
Peptide text beside a SMILES is read from it. * marks the point of attachment. Palmitoyl = CCCCCCCCCCCCCCCC(=O)*

Legend:
[1] = test system: SIV pseudoviruses SIVpbj and SIV239; experiment: inhibition of SIV pseudoviruses; type: cell-based
Description: (§1) The supernatant was discarded from the wells. […] Inhibition rate (%) and IC50 value were calculated.
(§2) In order to further reflect the antiviral advantages of the potent lipopeptides of the present invention, their inhibitory activity against HIV-2 and SIV was determined in the example. The methods of antiviral activity assays used were described in the literatures published by the present inventors (see the References 13 and 30 listed in the Background Art). The molecular cloning plasmid pROD of the HIV-2 strain ROD (HIV-2ROD) was kindly provided by Professor Nuno Taveira from the University of Lisbon, Portugal, and the plasmids expressing the SIV strain SIVpbj (SIVPBJ) and SIV239 envelope proteins (pSIVpbj-Env and pSIV239, respectively) were kindly provided by Professor Xu Jianqing from the Fudan University. The preparation of the infectious ROD was the same as that of the infectious JRCSF in the above section 2.1, and the pseudoviruses SIVpbj and SIV239 were prepared by a method same as that described in the above Examples 2 and 3.

[2] = test system: 35 HIV-1 pseudoviruses (subtypes A, B, B', C, G, A/C, A/E, B/C); conditions: for IC50: read-out: average IC50 for inhibition of various types of HIV-1 pseudoviruses, average over 35 pseudoviruses; for inhibitory activity against different subtypes of HIV-1 as folds of T-20: relative to T-20, from average IC50
From the text: HIV-1 pseudovirus-mediated cell entry inhibition assay: basic steps included: (1) Preparation of HIV-1 pseudovirus: the 293T cells were co-transfected with a plasmid expressing the envelope protein (Env) of HIV-1 strain NL4-3 (i.e., a recombinant expression plasmid obtained by inserting the gene encoding the envelope protein (ENV) of the D36G mutant of the HIV-1 strain NL4-3 in the Table 2 of the Reference 14 listed in the Background Art into the vector pcDNA3.1(−)) and the HIV-1 backbone plasmid pSG3Δenv (provided by the AIDS Reagent Program of National Institutes of Health (NIH), catalog number: 11051) by using a cell transfection reagent, incubated in a cell incubator of 37° C. and 5% CO2 for 6 hours, and then the medium was changed, and the cells were further incubated for 48 hours. The cell culture supernatant containing pseudovirus particles was pipetted and filtered with a 0.45 μm filter to collect the supernatant, then 20% fetal bovine serum (FBS) was added thereto, the final solution was transferred to a polypropylene tube, and stored at −80° C. for ready for use or directly subjected to virus titration. (2) Titration of HIV-1 pseudovirus: the viruses were diluted by 5 folds in a 96-well plate, and 4 replicate wells with 8 gradients were set to a final volume of 100 microliters. The TZM-b1 cells were trypsinized and counted, and the cells were diluted to 1×10^5 cells/ml with DMEM complete medium; 100 μl of cells dilution (containing 15 μg/ml DEAE-dextran) per well were added and cultured at 37° C. and 5% CO2 for 48 hours. The 96-well plate was then taken from the cell culture incubator. The supernatant was discarded from the wells. To each well, 30 μl of a cell lysate was added, and after 10 minutes, 100 μl of a luciferase detection reagent was added. 100 μl of liquid was pipetted from each well and added to a corresponding 96-well white plate, and the luminescence values were read by a microplate photometer. The virus titer was calculated by the Reed-Muench method. (3) Antiviral activity assay: the test substance was dissolved in DMSO and diluted with a cell culture solution by 3 folds, and placed in a 96-well plate at a final volume of […]. 50 μl of a DMEM medium was used in place of the test substance as a negative control. To each well, 100 μl of TZM-b1 target cells solution (containing 15 μg/ml DEAE-dextran) at a concentration of 1×10^5 cells/ml was added, and then 50 μl (corresponding to 100 TCID50 per well) of the HIV-1 pseudovirus obtained above was added. After incubation at 37° C. and 5% CO2 for 48 hours, the relative light units (RLU) of each well were determined by using a luciferase detection reagent (Promega). Inhibition rate (%) and IC50 value were calculated.
Among them, the A, B and C subtypes were the main viruses causing AIDS epidemic in the world, while B/C and A/E recombinant viruses were the main viruses in China. […] Among the Env expression plasmids used for the preparation of pseudoviral, except that the Env expression plasmids used for preparation of PVO, Du156 and CAP 210.2.00.E8 were obtained from the AIDS Reagent Program of NIH in the United states, other plasmids were preserved by the laboratory of Prof. He Yuxian, Institute of Pathogen Biology, Chinese Academy of Medical Sciences, please see the References 13, 14 and 18 listed in the Background Art and articles of Chong et al. (Chong H, Yao X, Zhang C, Cai L, Cui S, Wang Y, He Y. Biophysical property and broad anti-HIV activity of Albuvirtide, a 3-maleimimidoproprotionic acid-modified peptide fusion inhibitor. PLoS One, 2012; 7 (3): e 32599). The preparation of the pseudovirus and the antiviral assay were the same as those in Example 2.1 of Example 2 (HIV-1 pseudovirus-mediated cell entry inhibition assay).

[3] = test system: NL4-3 pseudovirus carrying T-20 resistance mutation site of NHR; experiment: inhibition of T-20 resistant strains; type: cell-based, HIV-1; conditions: strains with single or double mutations
[4] = test system: HIV-2 strain ROD (infectious); experiment: inhibition of HIV-2; type: cell-based; conditions: HIV-2 ROD
Description: (§3) Inhibition rate (%) and IC50 value were calculated.
as §2

[5] = biological target: N39 (NHR-derived polypeptide of gp41) (Human immunodeficiency virus type 1 group M subtype B, UniProt P04578); type: binding, HIV-1; conditions: 10 μM each, PBS pH 7.2
Description: (§4) The circular dichroism spectrophotometer was Jasco-815 by JASCO Inc., and the assay method was referred to the papers published by the inventors (see the References 18 and 30 listed in the Background Art). […] The N39 and an inhibitor were separately dissolved in a phosphate buffered saline (PBS) to prepare a PBS solution (pH 7.2) of a concentration of 20 μM. The N39 was mixed with an inhibitor at a volume ratio of 1:1 (final concentration of 10 μM for each), the mixed sample was placed at 37° C. for 30 minutes to fully react, and then the helix content and Tm value of the resultant complex were measured by the circular dichroism spectrophotometer. The scan wavelength range of the device was 195-260 nm with a wavelength interval of 1 nm, and the values measured by scanning for three times were averaged. Based on the CD signals, the interaction between the polypeptides and the helix content were determined. Then, the sample for CD signal measurement was transferred to the temperature scanning sample cell, the program of the CD device was set to temperature scanning with a detection wavelength of 220 nm and scanning range of 20-98° C., and the program scan was performed to obtain the curve of the CD signals vs temperature, based on which the Tm value was calculated. Based on the Tm value, the stability of the formed helical structure of the inhibitor and N39 was judged.

[6] = test system: HXB2-mediated cell fusion (HL2/3 effector cells, TZM-b1 target cells); type: cell-based, HIV-1
Description: HIV-1 mediated cell fusion inhibition assay: the effector cells (HL2/3 cells) and target cells (TZM-b1 cells) were provided by the AIDS Reagent Program of National Institutes of Health (NIH) (catalog numbers: 1294 and 8129, respectively). The both cells were adherent cells and were cultured in a DMEM cell culture medium containing ampicillin/streptomycin double antibiotics and 10% fetal bovine serum (FBS). The TZM-b1 was first added to a 96-well cell culture plate (1×10^4 cells/well), and cultured overnight at 37° C. and 5% CO2. The test substance was diluted with the DMEM cell culture medium by 3 folds and mixed with HL2/3 effector cells (3×10^4 cells/well), then added to the TZM-b1 target cells, and further cultured for 6 hours to fully fuse. The activity of luciferase (relative fluorescence units, RLU) was then determined using a luciferase reporter gene kit from Promega company according to the instructions. The inhibition rate of each sample at each concentration was calculated, and the half effective inhibitory concentration (IC50 value) was calculated using GraphPad Prism Software 2.01.

HIV-1 strain JRCSF = type: cell-based
Description: as §3

[7] = test system: HIV-1 strain NL4-3 pseudovirus (D36G mutant); type: cell-based
Description: as §1

[8] = circular dichroism secondary structure analysis of the inhibitors themselves; type: physicochemical; conditions: 20 μM and 40 μM in PBS
Description: as §4
For easy analysis, the α-helix content and the Tm value of the inhibitors were measured at concentrations of 10 μM, 20 μM, and 40 μM (PBS solution), respectively.

N39 (NHR-derived polypeptide of gp41), sequence (P04578 528-566): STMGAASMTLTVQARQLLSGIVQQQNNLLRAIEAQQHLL

SMILES | inhibitory activity against SIV (in words) [1] | IC50 [2] | inhibitory activity against different subtypes of HIV-1 as folds of T-20 [2] | inhibitory activity against T-20 resistant strains (in words) [3] | inhibitory activity against HIV-2 (in words) [4] | Tm value of the complex with N39 [5] | inhibitory activity against HXB2-cell fusion (in words) ([6]; compared with template LP-52) | decrease of inhibitory activity against JRCSF infection (HIV-1 strain JRCSF; compared with template LP-52) | decrease of inhibitory activity against NL4-3 infection ([7]; compared with template LP-52) | helix content of the complex with N39 [5] | inhibitory activity as folds of that of T-20 ([6]; HXB2-mediated cell fusion, relative to T-20) | secondary structure of the inhibitor itself (in words) [8] | inhibitory activity as folds of that of T-20 (HIV-1 strain JRCSF; JRCSF replication, relative to T-20) | inhibitory activity as folds of that of T-20 ([7]; NL4-3 pseudovirus entry, relative to T-20)
CCCCCCCCCCCCCCCC(=O)NCCCC[C@H](NC(=O)[C@H](CCCCN)NC(=O)[C@H](CC(C)C)NC(=O)[C@H](CCC(=O)O)NC(=O)[C@H](CCC(=O)O)NC(=O)[C@H](CCC(=O)O)NC(=O)[C@H](CC(N)=O)NC(=O)[C@H](CCCCN)NC(=O)[C@H](CCCCN)NC(=O)[C@H](CCC(N)=O)NC(=O)[C@H](CCC(N)=O)NC(=O)[C@H](CCC(=O)O)NC(=O)[C@H](CCC(=O)O)NC(=O)[C@H](C)NC(=O)[C@H](CCCCN)NC(=O)[C@H](CCCCN)NC(=O)[C@H](CC(C)C)NC(=O)[C@H](CC(C)C)NC(=O)[C@H](CCC(=O)O)NC(=O)[C@H](CCC(=O)O)NC(=O)[C@@H](NC(=O)[C@H](CCCCN)NC(=O)[C@H](CCC(N)=O)NC(=O)[C@H](CCC(=O)O)NC(=O)[C@H](Cc1c[nH]c2ccccc12)NC(C)=O)[C@@H](C)CC)C(N)=O [LP-55] (Ac-WEQKIEELLKKAEEQQKKNEEELKK(Palmitoyl)-NH2) | significantly affected the activity | 0.034 nM | 1218 folds | much lower active against T-20 resistant mutant strains than the LP-52 and LP-80 | significantly affected the activity | 63.1 °C | essentially unchanged | about 2 fold | about 2 fold |  |  |  |  | 
CCCCCCCCCCCCCCCC(=O)NCCCC[C@H](NC(=O)[C@H](CCC(=O)O)NC(=O)[C@H](CC(C)C)NC(=O)[C@H](CCCCN)NC(=O)[C@H](CCCCN)NC(=O)[C@H](CC(C)C)NC(=O)[C@H](CCC(=O)O)NC(=O)[C@H](CCC(=O)O)NC(=O)[C@H](CCC(=O)O)NC(=O)[C@H](CC(N)=O)NC(=O)[C@H](CCCCN)NC(=O)[C@H](CCCCN)NC(=O)[C@H](CCC(N)=O)NC(=O)[C@H](CCC(N)=O)NC(=O)[C@H](CCC(=O)O)NC(=O)[C@H](CCC(=O)O)NC(=O)[C@H](C)NC(=O)[C@H](CCCCN)NC(=O)[C@H](CCCCN)NC(=O)[C@H](CC(C)C)NC(=O)[C@H](CC(C)C)NC(=O)[C@H](CCC(=O)O)NC(=O)[C@H](CCC(=O)O)NC(=O)[C@@H](NC(C)=O)[C@@H](C)CC)C(N)=O [LP-65] (Ac-IEELLKKAEEQQKKNEEELKKLEK(Palmitoyl)-NH2) | extremely potent inhibitory activity | 0.052 nM | 796 folds | much lower active against T-20 resistant mutant strains than the LP-52 and LP-80 | extremely potent inhibitory activity | 72.1 °C |  |  |  | 63% |  |  |  | 
CCCCCCCCCCCCCCCC(=O)NCCCC[C@H](NC(=O)[C@H](CC(=O)O)NC(=O)[C@H](CC(C)C)NC(=O)[C@H](CCC(=O)O)NC(=O)[C@H](CC(C)C)NC(=O)[C@H](CC(C)C)NC(=O)[C@H](CCC(=O)O)NC(=O)[C@H](CCC(N)=O)NC(=O)[C@H](CCC(=O)O)NC(=O)[C@H](CC(N)=O)NC(=O)[C@H](CCCCN)NC(=O)[C@H](CCC(=O)O)NC(=O)[C@H](CCC(N)=O)NC(=O)[C@H](CCC(N)=O)NC(=O)[C@H](CC(N)=O)NC(=O)[C@H](CCC(N)=O)NC(=O)[C@H](CO)NC(=O)[C@H](CCC(=O)O)NC(=O)[C@H](CCC(=O)O)NC(=O)[C@@H](NC(=O)[C@H](CC(C)C)NC(=O)[C@H](CO)NC(=O)[C@H](Cc1c[nH]cn1)NC(=O)[C@@H](NC(=O)[C@H](CC(C)C)NC(=O)[C@H](CO)NC(=O)[C@@H](NC(=O)[C@H](Cc1ccc(O)cc1)NC(C)=O)[C@@H](C)O)[C@@H](C)CC)[C@@H](C)CC)C(N)=O [LP-40] (Ac-YTSLIHSLIEESQNQQEKNEQELLELDK(Palmitoyl)-NH2) | only slightly improved | 6.37 nM | 7 folds | had been improved | only slightly improved | 51.3 °C |  |  |  | 57.7% | about 59 folds | small amount of helical structure | ~18 folds | ~21 folds
